Test results reported in patent US9073820B2, “Pharmaceutical compositions comprising napthamides” (OREGON HEALTH & SCIENCE UNIVERSITY, priority 2011, dated 2015).
Like-named read-outs stand apart in the source and are kept apart here.

Columns and labels:
[1] = system: CREB-mediated gene transcription; test: CREB reporter (pCRE-RLuc) assay in HEK 293T cells, forskolin-stimulated; assay type: cell-based; conditions: Homo sapiens, 5 h, read-out: CREB reporter inhibition (IC50)
Protocol: HEK293T cells in a 10-cm plate were transfected with pCRE-RLuc (6.0 μg) using Lipofectamine™ 2000 (Invitrogen, Carlsbad, Calif.) according to manufacturer's protocol. After 3 h, the transfected cells were collected and replated into 96-well plates (1-2×10^4 cells/well). The cells were allowed to attach to the bottom of the wells for overnight, when compounds of different concentrations were added to the cells. Forskolin (final concentration of 10 μM, LC Laboratories, Woburn, Mass.) was added 30 min after the addition of the compounds. The cells were then incubated at 37° C. for 5 h. The media in the wells were removed and the cells were then lysed in 30 μL of 1×Renilla luciferase lysis buffer (Promega, Madison, Wis.). To measure Renilla luciferase activity, five μL of the lysate was combined with 30 μL of benzyl-coelenterazine (Nanolight, Pinetop, Ariz.) solution in PBS (pH 7.4, 10 μg/mL). The sample protein concentration was determined by Dye Reagent Concentrate (Bio-Rad, Hercules, Calif.). The Renilla luciferase activity was normalized to protein content in each well and expressed as relative luciferase unit/μg protein (RLU/μg protein). The IC50 was derived from non-linear regression analysis of the RLU/μg protein-concentration curve in Prism 5.0 (La Jolla, Calif.).

[2] = system: MCF-7 (human breast cancer cells); test: MTT cell growth inhibition, 72 h, MCF-7; assay type: cell-based; conditions: MCF7, 72 h, read-out: MCF-7 (GI50)
Protocol: (§1) A549 (human lung cancer cells), MCF-7 (human breast cancer cells), MDA-MB-231 (human breast cancer cells) and MDA-MB-468 cells (human breast cancer cells) were maintained in Dulbecco's modified Eagle medium (DMEM, Invitrogen, Carlsbad, Calif.) supplemented with 10% (v/v) fetal calf serum (Sigma, St. Louis, Mo.), 10 μg/mL penicillin and 10 μg/mL streptomycin (Invitrogen, Carlsbad, Calif.) at 37° C. under 5% CO2. On the day of experiment, different concentrations of the drugs (final concentration 10^−8-10^−4 M) in duplicates were added to the cells and the cells were further incubated for 72 h. Then, the number of live cells was quantified by 3-(4,5-dimethyl-2-thiazolyl)-2,5-diphenyl-2H-tetrazolium bromide (MTT reagent, Sigma, St. Louis, Mo.).
(§2) The amount of reduced MTT formazan generated by live cells was determined by its absorbance at 570 nm after subtracting the background absorbance at 690 nm. The percent of cell growth was expressed as (A570(treated)−A570(initial))/(A570(vehicle treated)−A570(initial))*100, where A570(initial) represents initial cell population when drugs are added. The GI50 were derived from non-linear regression analysis of the dose-response curve using Prism 4.0 (GraphPad). […] Data were presented as mean±SD of at least two measurements in duplicates unless noted.

[3] = system: A549 (human lung cancer cells); test: MTT cell growth inhibition, 72 h, A549; assay type: cell-based; conditions: A549, 72 h, read-out: A549 (GI50)
Protocol: as §1, §2

[4] = system: MDA-MB-231 (human breast cancer cells); test: MTT cell growth inhibition, 72 h, MDA-MB-231; assay type: cell-based; conditions: MDA-MB-231, 72 h, read-out: MDA-MB-231 (GI50)
Protocol: as §1, §2

[5] = system: MDA-MB-468 cells (human breast cancer cells); test: MTT cell growth inhibition, 72 h, MDA-MB-468; assay type: cell-based; conditions: MDA-MB-468, 72 h, read-out: MDA-MB-468 (GI50)
Protocol: as §1, §2

[6] = molecular target: T1, KIX-KID (Homo sapiens, UniProt Q92793); test: KIX-KID inhibition, split Renilla luciferase complementation (RLucC-KIX and KID-RLucN); assay type: binding; conditions: 4° C., 24 h
T1 construct: made in house
Protocol: RLucC-KIX (15 ng) and KID-RLucN-containing cell lysates (0.5 mg) were mixed together in Renilla luciferase lysis buffer (Promega, Madison, Wis.) in the presence of different concentrations of compounds. The final volume of the incubation mixture is 30 μL. The mixture was incubated at 4° C. for 24 h. Then Renilla luciferase activity was measured by combining 5 μL of incubation mixture with 30 μL of coelenterazine solution in PBS (pH 7.4, 10 μg/mL).

T1 sequence (Q92793 587-666 limits assumed): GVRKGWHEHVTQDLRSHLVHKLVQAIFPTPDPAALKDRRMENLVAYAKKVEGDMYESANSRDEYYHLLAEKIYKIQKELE

| Compound | IC50 ([1]; HEK-293T) [nM] | GI50 [4] [nM] | GI50 [5] [nM] | IC50 ([1]; HEK 293T, forskolin 10 μM) [nM] | IC50 [6] [nM] | also measured |
| --- | --- | --- | --- | --- | --- | --- |
| NCCCOc1nc2ccccc2cc1C(=O)NCCOc1cc2ccccc2cc1C(=O)Nc1ccc(Cl)cc1O [Compound 7] | 170 ± 66 | 840 ± 180 | 140 ± 24 | – | – | GI50 [2]: 190 nM; GI50 [3]: 640 nM |
| O=C(Nc1ccc(Cl)cc1)c1cc2ccccc2cc1O [Compound 1, reference compound] | – | – | – | 2290 ± 310 | 2900 ± 810 | GI50 ([4]; MTT, mean±SD): 2350 ± 600 nM; GI50 ([5]; MTT, mean±SD): 1460 ± 300 nM |
| NCCCOc1cc2ccccc2cc1C(=O)Nc1ccc(Cl)cc1OC(=O)c1cc2ccccc2cc1OCCCN [Compound 3, reference compound] | – | – | – | 2270 ± 280 | 8020 ± 360 | – |
| NCCCOc1cc2ccccc2cc1C(=O)NCCOc1nc2ccccc2cc1C(=O)Nc1ccc(Cl)cc1O [Compound 6] | 72 ± 9 | 190 ± 120 | 13 ± 2 | – | – | – |
| NCCCOc1nc2ccccc2cc1C(=O)NCCOc1nc2ccccc2cc1C(=O)Nc1ccc(Cl)cc1O [Compound 8] | 4030 ± 200 | 540 ± 130 | 290 ± 55 | – | – | – |
| NCCCOc1nc2ccccc2cc1C(=O)NCCOc1nc2ccccc2cc1C(=O)Nc1ccc(Cl)cc1F [Compound 9] | 440 ± 340 | 370 ± 250 | – | – | – | – |
| COc1cc2ccccc2cc1C(=O)Nc1ccccc1OC(=O)c1cc2ccccc2cc1OC [Compound 2, reference compound] | – | – | – | 1950 ± 1140 | 170 ± 120 | GI50 ([2]; MTT, mean±SD): 3380 ± 490 nM; GI50 ([3]; MTT, mean±SD): 8780 ± 2550 nM; GI50 ([4]; MTT, mean±SD): 23500 ± 2270 nM; GI50 ([5]; MTT, mean±SD): 8130 ± 5470 nM |
